Reference: publication PMC12287140, “Branched-chain amino acid catabolism initiates volatile synthesis in Gentiana triflora” (Planta, 2025)

What was measured:
GeBCAT1 = tested on: T1, GeBCAT1; experiment: deamination assay, LC-TOF-MS of PFBHA-derivatized keto acid; assay type: biochemical, Gentiana triflora; settings: 120 mM alpha-ketoglutarate, 0.16 mM PLP, 4 mM DTT, 0.1 M Tris-HCl pH 8.0, 33 °C
T1 construct: open reading frame (390 aa, predicted mitochondrial transit peptide) in pEU-FLAG-GST-GW; FLAG-GST tag, no cleavage told; wheat cell-free synthesis, GST-purified
Excerpt: deamination assay, LC-TOF-MS of PFBHA-derivatized keto acid on GeBCAT1 | Km and Vmax values of recombinant GeBCAT1 and GeBCAT2 are shown for different substrates

GeBCAT2 = tested on: T2, GeBCAT2; experiment: as above; assay type: biochemical, Gentiana triflora; settings: 120 mM alpha-ketoglutarate, 0.16 mM PLP, 4 mM DTT, 0.1 M Tris-HCl pH 8.0, 33 °C
T2 construct: open reading frame (411 aa, predicted plastid transit peptide) in pEU-FLAG-GST-GW; FLAG-GST tag, no cleavage told; wheat cell-free synthesis, GST-purified
Excerpt: deamination assay, LC-TOF-MS of PFBHA-derivatized keto acid on GeBCAT2 | Km and Vmax values of recombinant GeBCAT1 and GeBCAT2 are shown for different substrates

Row | Compound | Km (GeBCAT1) [µM] | Km (GeBCAT2) [µM]
1 | CC[C@H](C)[C@H](N)C(=O)O [Ile] | 88 ± 40 | 310 ± 15
2 | CC(C)C[C@H](N)C(=O)O [Leu] | 780 ± 280 | 650 ± 29
3 | CC(C)[C@H](N)C(=O)O [Val] | 79 ± 15 | 4570 ± 320
